Assay results from patent US20230025880A1, “FUSED TRICYCLIC COMPOUND AND MEDICINAL USE THEREOF” (JAPAN TOBACCO INC., priority 2020, published 2023).

Target: T1, human PDHK2 (hPDHK2) (Homo sapiens, UniProt Q15119)
T1 construct: made in house; host or cells: Escherichia coli BL21(DE3), pET-17b vector
Test: Inhibitory action of PDHK2 activity (residual PDH activity, NADH absorbance at 340 nm)
Assay type: biochemical
Conditions: for IC50: PDH/hPDHK2 complex, PDHK reaction 45 min at room temperature; for inhibition at 0.1 µM: given when IC50 value could not be calculated, read-out: hPDHK2 inhibitory rate
Procedure: In the case of human PDHK2 (hPDHK2, NCBI Reference Database Accession number NM_002611.4), modified hPDHK2 cDNA wherein FLAG-Tag sequence was added to the N terminus of hPDHK2 cDNA clone (pReceiver-M01/PDK2-GeneCopoeia) as the base was prepared by polymerase chain reaction (PCR) and ligated to the NdeI/EcoRI site of pET-17b vector (Merck KGaA, Catalog Number 69663-3). The recombinant construct was transformed into Escherichia coli DH5α. The recombinant clones were identified, and plasmid DNA was isolated and subjected to the DNA sequence analysis. One clone which had the expected nucleic acid sequence was selected for expression work.
For expression of hPDHK2 activity, Escherichia coli strain BL21(DE3) cells (Merck KGaA, Catalog Number 69450-4) were transformed with the pET17b vector containing modified hPDHK2 cDNA. The Escherichia coli were grown to an optical density 0.6 ([…]) at 30° C. Protein expression was induced by the addition of 500 μmol/L isopropyl-β-thiogalactopyranoside. The Escherichia coli were cultured at 20° C. for 17-18 hr and harvested by centrifugation. The harvested Escherichia coli was resuspended in a suspension buffer (20 mmol/L HEPES-NaOH, 500 mmol/L sodium chloride, 1% ethylene glycol, 0.1% Pluronic (registered trademark) F-68 (pH 8.0), cOmplete, EDTA-free (Roche) (pH 8.0)), and disrupted by a microfluidizer M-110H (MIZUHO INDUSTRIAL CO., LTD.). The precipitate was removed by centrifugation and the supernatant was added to DDDDK-tagged Protein PURIFICATION GEL (MEDICAL & BIOLOGICAL LABORATORIES CO., LTD., Code No. 3329). DDDDK-tagged Protein PURIFICATION GEL was washed with a washing buffer (20 mmol/L HEPES-NaOH, 500 mmol/L sodium chloride, 1% ethylene glycol, 0.1% Pluronic F-68 (pH 8.0)) and the bound protein was eluted with elution buffer 1 (20 mmol/L HEPES-NaOH, 100 μg/mL peptide (amino acid sequence DYKDDDDK) (SEQ ID NO: 1), 500 mmol/L sodium chloride, 1% ethylene glycol, 0.1% Pluronic F-68 (pH 8.0)). The eluted fractions containing FLAG-Tagged protein were pooled, concentrated by an ultrafiltration method, added to a gel filtration column (HiLoad 26/60 Superdex 200 (GE Healthcare Life Sciences, Code No. 17-1070-01)), and eluted with elution buffer 2 (20 mmol/L HEPES-NaOH, 150 mmol/L sodium chloride, 0.5 mmol/L ethylenediaminetetraacetic acid (EDTA), 1% ethylene glycol, 0.1% Pluronic F-68 (pH 8.0)). The eluted fractions were pooled and preserved at −80° C.
PDH (porcine heart PDH complex, Sigma P7032) and 0.5 μg/mL hPDHK2 were mixed in an assay buffer (50 mmol/L 3-morpholinopropanesulfonic acid (pH 7.0), 20 mmol/L dipotassium hydrogen phosphate, 60 mmol/L potassium chloride, 2 mmol/L magnesium chloride, 0.4 mmol/L EDTA, 0.2% poloxamer, 2 mmol/L dithiothreitol) so that the final concentration of PDH was 0.025 U/mL, and the mixture was incubated at 4° C. overnight to obtain a PDH/hPDHK2 complex solution.
PDH was mixed with the assay buffer so that the final concentration was 0.025 U/mL, and the mixture was incubated at 4° C. overnight to prepare a PDH solution.
The test compounds were diluted with DMSO. To measure an inhibitory action of the test compound on the PDHK activity in the PDH/hPDHK2 complex solution, PDH/hPDHK2 complex solution (20 μL), test compound (1.5 μL) and 1.06 μmol/L ATP (diluted with assay buffer) (8.5 μL) were added to a 384 well microplate (Greiner Bio-One 781801) and PDHK reaction was performed at room temperature for 45 min (test compound well). DMSO (1.5 μL) was added to control wells instead of test compound. In addition, DMSO (1.5 μL) was added to blank wells instead of the test compound, and PDH solution was added instead of the PDH/hPDHK2 complex solution. To measure an inhibitory action of the test compound on the PDHK activity inherent in the PDH solution, a test compound was added and the PDH solution instead of the PDH/hPDHK2 complex solution was added to a blank+test compound well. […]

Row | IC50 [nM] | inhibition at 0.1 µM [%] | Compound
1 | 31 |  | C[C@H]1Cn2nc(C(C)(O)C(F)(F)F)cc2-c2cnc([C@@](C)(O)C(F)(F)F)n21 (mixture of isomers) [Example 26]
2 | 16 |  | C[C@H]1Cc2ccccc2-c2cnc([C@@](C)(O)C(F)(F)F)n21 (racemic) [Example 1, 1,1,1-trifluoro-2-(5-methyl-5,6-dihydroimidazo[5,1-a]isoquinolin-3-yl)propan-2-ol]
3 | 17 |  | C[C@H]1Cc2c(C(F)(F)F)noc2-c2cnc([C@@](C)(O)C(F)(F)F)n21 (racemic) [Example 3]
4 | 21 |  | C[C@H]1Cc2cc(C#N)ccc2-c2cnc([C@@](C)(O)C(F)(F)F)n21 (racemic) [Example 5]
5 | 220 |  | C[C@H]1Cc2cnc(C(F)(F)F)nc2-c2cnc([C@@](C)(O)C(F)(F)F)n21 (racemic) [Example 6, 1,1,1-trifluoro-2-(6-methyl-2-(trifluoromethyl)-5,6-dihydroimidazo[1′,5′:1,2]pyrido[3,4-d]pyrimidin-8-yl)propan-2-ol]
6 | > 100 | 31 | C[C@H]1Cc2c(C(F)(F)F)nn(C)c2-c2cnc([C@@](C)(O)C(F)(F)F)n21 (racemic) [Example 24, 2-(1,5-dimethyl-3-(trifluoromethyl)-4,5-dihydro-1H-imidazo[1,5-a]pyrazolo[3,4-c]pyridin-7-yl)-1,1,1-trifluoropropan-2-ol]
7 | 18 |  | C[C@H]1Cc2c(C(C)(C)O)noc2-c2cnc([C@@](C)(O)C(F)(F)F)n21 (racemic) [Example 25]
8 | 21 |  | C[C@H]1Cc2c(C3CC3)noc2-c2cnc([C@@](C)(O)C(F)(F)F)n21 (racemic) [Example 34, 2-(3-cyclopropyl-5-methyl-4,5-dihydroimidazo[1,5-a]isoxazolo[5,4-c]pyridin-7-yl)-1,1,1-trifluoropropan-2-ol]
9 | 19 |  | C[C@H]1Cc2c(noc2C2CC2)-c2cnc([C@@](C)(O)C(F)(F)F)n21 (racemic) [Example 35, 2-(3-cyclopropyl-5-methyl-4,5-dihydroimidazo[1,5-a]isoxazolo[3,4-c]pyridin-7-yl)-1,1,1-trifluoropropan-2-ol]
10 | 27 |  | C[C@H]1Cc2c(C(F)(F)F)n[nH]c2-c2cnc([C@@](C)(O)C(F)(F)F)n21 (racemic) [Example 50, 1,1,1-trifluoro-2-(5-methyl-3-(trifluoromethyl)-4,5-dihydro-1H-imidazo[1,5-a]pyrazolo[3,4-c]pyridin-7-yl)propan-2-ol]
11 | 26 |  | C[C@H]1Cn2c(nnc2C(F)(F)F)-c2cnc([C@@](C)(O)C(F)(F)F)n21 [Example 2, (R)-1,1,1-trifluoro-2-((S)-6-methyl-3-(trifluoromethyl)-5,6-dihydroimidazo[1,5-a] [1,2,4]triazolo[3,4-c]pyrazin-8-yl)propan-2-ol]
12 | 14 |  | C[C@H]1Cn2nc(C(F)(F)F)cc2-c2cnc([C@@](C)(O)C(F)(F)F)n21 [Example 4]
13 | 7.5 |  | C[C@H]1Cn2c(cnc2C(F)(F)F)-c2cnc([C@@](C)(O)C(F)(F)F)n21 [Example 7]
14 | 7.7 |  | C[C@H]1Cn2nccc2-c2cnc([C@@](C)(O)C(F)(F)F)n21 [Example 8]
15 | 13 |  | Cc1cc2n(n1)C[C@H](C)n1c-2cnc1[C@@](C)(O)C(F)(F)F [Example 9]
16 | 13 |  | C[C@H]1Cn2nc(C3CC3)cc2-c2cnc([C@@](C)(O)C(F)(F)F)n21 [Example 10]
17 | 34 |  | C[C@H]1Cn2ncc(Cl)c2-c2cnc([C@@](C)(O)C(F)(F)F)n21 [Example 11]
18 | > 100 | 35 | CC[C@H]1Cn2nc(C(F)(F)F)cc2-c2cnc([C@@](C)(O)C(F)(F)F)n21 [Example 12]
19 | 13 |  | C[C@H]1Cn2nc(C(F)(F)F)cc2-c2nnc([C@@](C)(O)C(F)(F)F)n21 [Example 13, (R)-1,1,1-trifluoro-2-((S)-5-methyl-9-(trifluoromethyl)-5,6-dihydropyrazolo[1,5-a] [1,2,4]triazolo[3,4-c]pyrazin-3-yl)propan-2-ol]
20 | 6.3 |  | C[C@H]1Cn2c(nnc2C2CC2)-c2cnc([C@@](C)(O)C(F)(F)F)n21 [Example 14]
21 | 14 |  | C[C@H]1Cn2nc(C(C)(C)C)cc2-c2cnc([C@@](C)(O)C(F)(F)F)n21 [Example 15]

Row | IC50 [nM] | inhibition at 0.1 µM [%] | Compound
22 | 12 |  | Cc1nnc2n1C[C@H](C)n1c-2cnc1[C@@](C)(O)C(F)(F)F [Example 16]
23 | 7.3 |  | C[C@H]1Cn2c(nnc2C2(C)CC2)-c2cnc([C@@](C)(O)C(F)(F)F)n21 [Example 17]
24 | 6.5 |  | C[C@H]1Cn2c(C(F)(F)F)cnc2-c2cnc([C@@](C)(O)C(F)(F)F)n21 [Example 18]
25 | 11 |  | C[C@H]1Cn2cc(C(F)(F)F)nc2-c2cnc([C@@](C)(O)C(F)(F)F)n21 [Example 19]
26 | 22 |  | C[C@H]1Cn2nc(C(C)(C)O)cc2-c2cnc([C@@](C)(O)C(F)(F)F)n21 [Example 20]
27 | 6.3 |  | C[C@H]1Cn2c(-c3ccc(F)cc3)nnc2-c2cnc([C@@](C)(O)C(F)(F)F)n21 [Example 21]
28 | 12 |  | C[C@H]1Cn2nc(C(=O)N(C)C)cc2-c2cnc([C@@](C)(O)C(F)(F)F)n21 [Example 22]
29 | 13 |  | C[C@H]1Cn2nc(OC(F)F)cc2-c2cnc([C@@](C)(O)C(F)(F)F)n21 [Example 23, (R)-2-((S)-9-(difluoromethoxy)-5-methyl-5,6-dihydroimidazo[1,5-a]pyrazolo[5,1-c]pyrazin-3-yl)-1,1,1-trifluoropropan-2-ol]
30 | 11 |  | C[C@H]1Cn2nc(OCc3ccccc3)cc2-c2cnc([C@@](C)(O)C(F)(F)F)n21 [Example 27]
31 | 22 |  | C[C@H]1Cn2nc(O)cc2-c2cnc([C@@](C)(O)C(F)(F)F)n21 [Example 28]
32 | 38 |  | C[C@H]1Cn2nc(C(F)F)cc2-c2cnc([C@@](C)(O)C(F)(F)F)n21 [Example 29]
33 | 12 |  | C[C@H]1Cn2nc(OCCC(C)(C)O)cc2-c2cnc([C@@](C)(O)C(F)(F)F)n21 [Example 30]
34 | 81 |  | Cc1cnn2c1-c1cnc([C@@](C)(O)C(F)(F)F)n1[C@@H](C)C2 [Example 31]
35 | 29 |  | COc1ccc(COCc2cc3n(n2)C[C@H](C)n2c-3cnc2[C@@](C)(O)C(F)(F)F)cc1 [Example 33]
36 | 19 |  | C[C@H]1Cn2nc(CO)cc2-c2cnc([C@@](C)(O)C(F)(F)F)n21 [Example 36]
37 | 21 |  | C[C@H]1Cn2nc(C=O)cc2-c2cnc([C@@](C)(O)C(F)(F)F)n21 [Example 37]
38 | 14 |  | C[C@H]1Cn2nc(C(=O)N3CC(F)(F)C3)cc2-c2cnc([C@@](C)(O)C(F)(F)F)n21 [Example 38]
39 | 8.1 |  | C[C@H]1Cn2c(nnc2C(C)(C)C(F)(F)F)-c2cnc([C@@](C)(O)C(F)(F)F)n21 [Example 39]
40 | 11 |  | C[C@H]1Cn2c(nnc2C2(C(F)(F)F)CC2)-c2cnc([C@@](C)(O)C(F)(F)F)n21 [Example 40]
41 | 21 |  | C[C@H]1Cn2nc(C(=O)O)cc2-c2cnc([C@@](C)(O)C(F)(F)F)n21 [Example 41]
42 | 24 |  | C[C@H]1Cn2nc(C#N)cc2-c2cnc([C@@](C)(O)C(F)(F)F)n21 [Example 42]
